The values below come from paper PMC2854136 (Biochemistry, 2009).

Where “and” joins values, the source holds several entries; their conditions need not be identical. Identical values can stand only once. Like-named read-outs stand apart in the source and are kept apart here.

Assay [1] deals with T1, Escherichia coli glutaminyl-tRNA synthetase (GlnRS) (Escherichia coli, UniProt P00962). In kind it is biochemical.
Target sequence in this assay (P00962 2-554): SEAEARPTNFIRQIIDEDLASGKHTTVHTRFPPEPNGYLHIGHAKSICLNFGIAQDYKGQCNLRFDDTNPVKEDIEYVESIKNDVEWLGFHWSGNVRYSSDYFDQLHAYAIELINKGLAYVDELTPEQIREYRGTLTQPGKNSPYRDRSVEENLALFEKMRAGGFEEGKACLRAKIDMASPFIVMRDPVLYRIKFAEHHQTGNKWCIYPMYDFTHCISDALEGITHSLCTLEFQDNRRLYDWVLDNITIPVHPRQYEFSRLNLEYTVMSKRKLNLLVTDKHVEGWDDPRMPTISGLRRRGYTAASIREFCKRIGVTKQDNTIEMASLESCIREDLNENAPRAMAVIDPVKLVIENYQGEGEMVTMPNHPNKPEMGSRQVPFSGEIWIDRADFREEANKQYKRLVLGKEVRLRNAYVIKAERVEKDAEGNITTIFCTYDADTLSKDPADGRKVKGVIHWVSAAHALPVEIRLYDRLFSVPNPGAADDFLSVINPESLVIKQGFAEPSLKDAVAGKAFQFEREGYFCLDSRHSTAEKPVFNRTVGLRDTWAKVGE
The target of assay [2] is T1, Escherichia coli glutaminyl-tRNA synthetase (GlnRS). As to the kind of experiment: Misacylation of tRNA^Gln with glutamate. The assay is classed as biochemical. The note with it: very high glutamate concentrations, single-turnover conditions.
Target sequence in this assay (P00962 whole entry): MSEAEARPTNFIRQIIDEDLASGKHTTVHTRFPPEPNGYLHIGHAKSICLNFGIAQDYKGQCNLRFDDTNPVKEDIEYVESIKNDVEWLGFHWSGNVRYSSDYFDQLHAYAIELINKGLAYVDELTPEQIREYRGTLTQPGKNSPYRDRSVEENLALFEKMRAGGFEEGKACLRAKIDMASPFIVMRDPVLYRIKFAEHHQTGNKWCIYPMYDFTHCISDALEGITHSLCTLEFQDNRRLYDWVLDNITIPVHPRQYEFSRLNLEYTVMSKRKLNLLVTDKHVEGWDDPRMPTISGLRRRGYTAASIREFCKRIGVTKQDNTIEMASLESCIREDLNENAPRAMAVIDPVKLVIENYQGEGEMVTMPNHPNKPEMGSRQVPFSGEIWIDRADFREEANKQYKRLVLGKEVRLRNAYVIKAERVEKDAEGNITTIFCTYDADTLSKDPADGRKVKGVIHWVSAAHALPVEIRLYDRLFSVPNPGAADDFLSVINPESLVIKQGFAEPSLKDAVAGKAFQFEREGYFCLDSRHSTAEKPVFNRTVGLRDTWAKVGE
For assay [3] the target is unchanged. In kind it is biochemical. The note with it: 3′-dATP versus ATP.
Target sequence in this assay (P00962 2-554): as the sequence (P00962 2-554) above
Assay [4] shares this target. The note with it: wild-type GlnRS, cited from earlier work.
Target sequence in this assay (P00962 2-554): as above

In general, kcat refers to the number of substrate molecules converted per active site and unit of time at saturation. With 3′-dATP, in assay [1] (3′-dATP versus ATP), the “fold diminution of kcat from wild-type (ATP) reaction” value is 70 fold and 71 fold; the “fold elevation of Km (ATP/3′-dATP) from wild-type (ATP) reaction” value is recorded as 2 fold; the “fold elevation of Km (GLN) from wild-type (ATP) reaction” value was found to be 16 fold. Also, in assay [1] (read-out: Km (ATP/3′-dATP), wild-type GlnRS, Km for 3′-dATP), the Km was 410 ± 30 µM. Also, the turnover number (kcat) in assay [1] (wild-type GlnRS, 3′-dATP in place of ATP, 50 nM enzyme, 12.5 μM tRNA, 37 °C) is 0.045 ± 0.02 s⁻¹. For the same molecule, in assay [2], the “misacylation of tRNA^Gln with glutamate using 3′-dATP” value is listed as “unable to detect any reaction”. Also, in assay [3], the “fold diminution of kobs from wild-type (ATP) reaction” value came out at 47 fold.
For the molecule `Nc1ncnc2c1ncn2[C@@H]1O[C@H](COP(=O)(O)OP(=O)(O)OP(=O)(O)O)[C@@H](O)[C@H]1O` [ATP], the Km in assay [4] (read-out: Km (ATP/3′-dATP), Km for ATP) was 200 ± 20 µM. Also, the kcat in assay [4] (ATP-mediated glutaminylation, 37 °C) was 3.2 ± 0.5 s⁻¹.
